Test results published in US10362781B2, “Methods of controlling the breeding behavior of butterflies” (University of the West Indies, a Regional Institution, …, priority 2010, dated 2019).

What was measured:
Assay type in all cases: in vivo, Heraclides andraemon
H. andraemon [1] = assay: Egg laying of lime (citrus) plant bred H. andraemon given a choice of plants on which to lay (Example 7); conditions: eggs laid on Piper amalago var. amalago plants sprayed with the substance, lime plant-reared butterflies, choice of 4 plants
Experimental: The aerosol mixture for application to citrus plant and Piper amalago var. amalago plant materials was prepared by combining lime plant oil, Piper amalago var. amalago plant oil, d-limonene, or a combination thereof, with an alkane hydrocarbon mixture consisting of 28% butane and 72% propane. The aerosol was filled to a concentration of, e.g., 0.25% by weight of Piper amalago var. amalago plant oil in the hydrocarbon mixture or, e.g., 0.45% by weight of lime plant oil in the hydrocarbon mixture.
H. andraemon larvae were reared on lime plant. When they pupated and were ready to lay eggs, they were given the choice of plants on which to lay eggs: unsprayed lime plants, unsprayed Piper amalago var. amalago plants, Piper amalago var. amalago plants sprayed with lime plant oil, and Piper amalago var. amalago plants sprayed with d-limonene. Egg laying was permitted to continue until the butterflies ceased laying eggs. Nearly 100% of the eggs laid hatched into larvae.
Table 5 summarizes the results of an experiment in which the faithfulness of egg laying on the species of plant on which the butterflies were reared was confirmed. In this experiment, both lime plant oil and d-limonene were sprayed onto Piper amalago var. amalago plant to determine whether the butterflies discriminated between the two.

H. andraemon [2] = assay: H. andraemon egg laying on lime plant seedling and P. aduncum, choice of four plants (Example 9); conditions: P. aduncum cuttings sprayed twice daily with 0.15% d-limonene aerosol; choice of 4 plants
Text: Butterflies were induced to lay on host plant Piper aduncum plant sprayed with lime plant oil, or lime plant sprayed with Piper aduncum plant oil. Piper aduncum shoots were collected in Andrew, Jamaica, and 297.35 g of leaves were placed in a Clevenger-type extractor and extracted with boiling water. Once extracted according to the methods described in Example 2, 0.8919 g of a clear oil with a minty-like odor was obtained, a yield of 0.30% by weight.
Four Heraclides andraemon pupae were placed in the cage previously described in Example 1. Three pupae hatched into adults, two males and a female, which were allowed to mate and lay eggs. They were given a choice of four types of plants on which to lay: unsprayed Piper aduncum cuttings; Piper aduncum cuttings sprayed with d-limonene; unsprayed lime seedlings; and lime seedlings sprayed with the Piper aduncum emulsion. These plants, all with young leaves, were placed around the cage.
Cuttings from the Piper aduncum shoots with young leaves were used to attempt to induce butterflies to feed and lay eggs on a Piper aduncum plant treated with lime plant extract. The Piper aduncum cuttings were sprayed twice daily for eight days, once in the morning and once in the afternoon, with a d-limonene aerosol formulation. The d-limonene aerosol formulation was prepared as a hydrocarbon mixture of 72% propane and 28% butane, with 0.15% d-limonene. […]

H. andraemon [3] = assay: Egg laying of Piper amalago var. amalago plant bred H. andraemon given a choice of plants on which to lay (Example 8); conditions: eggs laid on citrus plant sprayed with the substance, Piper amalago var. amalago-reared butterflies, choice of 4 plants
Text: H. andraemon larvae were reared on Piper amalago var. amalago plant. When they pupated and were ready to lay eggs, the butterflies were given the choice of plants on which to lay eggs: unsprayed lime plants, unsprayed Piper amalago var. amalago plants, citrus plant sprayed with Piper amalago var. amalago plant oil, and citrus plant sprayed with d-limonene. The egg laying was permitted to continue until the butterflies ceased laying eggs.

C=C(C)[C@H]1CC=C(C)CC1 [d-limonene]
% of eggs laid (H. andraemon [1]): 25.00% | No. of eggs laid (H. andraemon [1]; total 208 eggs): 52 | % of eggs laid (H. andraemon [2]): 0% | No. of Eggs after 5 Days (H. andraemon [2]): 0 | % of eggs laid (H. andraemon [3]): 13.47% | No. of eggs laid (H. andraemon [3]; total 193 eggs): 26
